What was measured:
[1] = system: cholesterol in blood serum; conditions: Merck Index, 12th Edition; cited from earlier work
Solubility = assay type: physicochemical
[2] = system: cholesterol in blood serum; assay: Blood serum cholesterol reduction by eritadenine; assay type: in vivo, human
Text: As regards the therapeutic action of eritadenine it should be noted that it acts endogenously in a dose-dependent manner and can be used as a functional food component in small doses for reducing the total cholesterol of normal human beings. By contrast, existing methods provide for food components having an exogenous effect on the cholesterol balance and these dietary components therefore have to be used in extremely large doses in comparison to eritadenine. […] The present invention makes it possible to produce a functional food component which acts in a druglike manner influencing human phospholipidic metabolic step sequences, still preserving the true features of a functional food component. As mentioned above, eritadenine has the additive effects of not only dose-dependent, endogenous cholesterol-depression but also therapeutic effects like endogenous linoleic acid formation and blood plasma viscosity reduction.
It acts in a drug-like manner, inhibiting the endogenous synthesis of cholesterol metabolism and the enterohepatic fat circle. d-eritadenine is effective in very low absorbed doses, at 1 ppm+-level, ensuring safety and essential metabolic step preservation.
Thus, the addition of eritadenine, especially d-eritadenine, to an exogenously acting existing functional food will more than double the cholesterol-depressing effect due to enterohepatic and exterohepatic multiplicatory effects. Mathematically consecutive 10% reductions would give […] total reduction, and consecutive 15% reductions would give 28% total reduction, by the present invention, due to the feedback inhibition created by the simultaneous exogenous and endogenous actions of the food components, a greater decrease of the cholesterol level will be achieved. The food compositions according to the present invention may therefore comprise a (conventional) food component having an exterohepatic cholesterol depressing effect. Such a food component can be selected from the group of fibers, chitosan, tocotrienols, plant sterols, stanol esters and sitostanol esters. […]

SAH hydrolase = SAH hydrolase (Homo sapiens, UniProt P23526)
Text: It is possible to achieve favourable changes in the blood plasma cholesterol pattern by reducing the molar ratio of total cholesterol/phospholipid ratio and/or changing the phospolipid molar ratio of PC/PE and/or inhibiting enzymatically controlled reactions where PC and PE is directly or indirectly via the SAM/SAH cycle involved. The following theory has been formulated: • Step 1: Total PL and PL (phospholipids) composition may be changed by kinetics of the SAM and SAH cycle. • Step 2: SAM and SAH concentrations are inhibited/stimulated by intervening in the methionine and cysteine metabolism • Step 3: In this metabolism SAH degradation to adenosine and homocysteine is an enzymatic reaction catalysed by SAH hydrolase. By inhibiting partially, not totally, SAH hydrolase, the concentration of SAH will rise affecting the SAM/SAH ratio and step 1 will be executed.
Eritadenine has been tested for use in the above model.

SAH hydrolase, sequence (P23526 whole entry): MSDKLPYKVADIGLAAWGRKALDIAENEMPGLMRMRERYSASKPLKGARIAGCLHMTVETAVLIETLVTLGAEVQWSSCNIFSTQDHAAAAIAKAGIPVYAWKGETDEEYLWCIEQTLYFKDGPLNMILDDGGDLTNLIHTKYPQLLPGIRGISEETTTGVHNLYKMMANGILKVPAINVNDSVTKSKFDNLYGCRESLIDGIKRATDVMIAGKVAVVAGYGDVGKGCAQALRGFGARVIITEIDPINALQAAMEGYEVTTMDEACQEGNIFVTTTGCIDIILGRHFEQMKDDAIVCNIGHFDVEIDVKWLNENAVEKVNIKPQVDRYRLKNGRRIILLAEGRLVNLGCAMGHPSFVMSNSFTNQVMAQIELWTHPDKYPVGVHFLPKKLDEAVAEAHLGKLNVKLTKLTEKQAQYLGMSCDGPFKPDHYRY

Row | SMILES | effect on concentration of cholesterol in blood serum [1] | solubility in fats (Solubility) | reduction of cholesterol ([2]; 5 to 50 mg as dose response, depending on the dietary cholesterol amount) [%] | effective absorbed dose level ([2]; absorbed dose) [ppm] | relative efficiency among eritadenine isomers ([2]; compared with l-eritadenine (2S,3S) and threo isomers) | dose needed for SAH hydrolase inhibition (SAH hydrolase) | extent of SAH hydrolase inhibition (SAH hydrolase) | speed of SAH hydrolase inhibition (SAH hydrolase)
1 | Nc1ncnc2c1ncn2C[C@@H](O)[C@@H](O)C(=O)O [Eritadenine] | capable of reducing the concentration of cholesterol in blood serum | soluble in fats | – | – | – | – | – | –
2 | Nc1ncnc2c1ncn2C[C@@H](O)[C@@H](O)C(=O)O [d-eritadenine, 2(R), 3(R)-dihydroxy-4-(9-adenyl)butyric acid] | – | – | > 20 | ≥ 1 | most efficient | inhibits already in small doses | inhibits partially, no total blocking | rapid
